Where “and” joins values, the source holds several entries; their conditions need not be identical. Equal values may be shown once.

Here are results for 4 molecules from patent US20230173059A1, “TOLL-LIKE RECEPTOR (TLR) AGONIST NANOPARTICLES AND USES THEREOF” (The Board of Trustees of the Leland Stanford Junior …, priority 2020, published 2023).

One data set concerns SARS-CoV-2 spike protein. The following applies: in vivo, sc.
Another data set deals with T1, TLR9 (Mus musculus, UniProt Q9EQU3).
T1 construct: host or cells: Raw-Blue (NF-kB-SEAP) mouse macrophage reporter cells
T1 sequence (Q9EQU3 26-1032): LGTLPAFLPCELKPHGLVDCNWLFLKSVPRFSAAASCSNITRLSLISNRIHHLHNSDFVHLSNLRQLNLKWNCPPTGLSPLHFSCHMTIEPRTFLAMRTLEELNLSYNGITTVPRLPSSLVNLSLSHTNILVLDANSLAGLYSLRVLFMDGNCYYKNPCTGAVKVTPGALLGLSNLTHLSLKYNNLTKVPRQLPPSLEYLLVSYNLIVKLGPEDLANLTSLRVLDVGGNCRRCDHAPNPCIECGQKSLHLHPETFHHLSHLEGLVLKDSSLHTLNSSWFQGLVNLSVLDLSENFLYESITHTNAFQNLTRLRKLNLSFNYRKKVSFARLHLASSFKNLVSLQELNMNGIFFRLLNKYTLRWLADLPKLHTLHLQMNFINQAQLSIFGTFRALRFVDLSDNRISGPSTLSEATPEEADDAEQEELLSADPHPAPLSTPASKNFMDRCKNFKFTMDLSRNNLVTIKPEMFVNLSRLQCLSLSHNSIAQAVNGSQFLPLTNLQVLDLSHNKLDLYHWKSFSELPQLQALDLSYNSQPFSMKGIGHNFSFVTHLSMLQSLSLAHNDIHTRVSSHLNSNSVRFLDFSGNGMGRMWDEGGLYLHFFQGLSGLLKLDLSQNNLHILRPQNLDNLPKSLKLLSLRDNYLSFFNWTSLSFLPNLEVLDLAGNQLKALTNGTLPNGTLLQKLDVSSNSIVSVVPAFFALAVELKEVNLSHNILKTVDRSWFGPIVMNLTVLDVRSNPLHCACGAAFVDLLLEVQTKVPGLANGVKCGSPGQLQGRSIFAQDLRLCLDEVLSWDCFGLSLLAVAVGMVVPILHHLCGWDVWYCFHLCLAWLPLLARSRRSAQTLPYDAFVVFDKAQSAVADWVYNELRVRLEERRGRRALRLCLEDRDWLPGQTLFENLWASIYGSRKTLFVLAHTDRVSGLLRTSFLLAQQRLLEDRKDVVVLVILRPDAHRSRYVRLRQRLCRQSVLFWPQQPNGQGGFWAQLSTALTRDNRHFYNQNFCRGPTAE
Description: In vitro Raw-Blue reporter assay (CpG). It is filed as cell-based. The following applies: 100,000 Raw-Blue cells, 21 h, CpG-C 3.1-29 μg/mL, absorbance 655 nm. Here is the method: In vitro Raw-Blue reporter assay. The Raw-Blue (NF-kB-SEAP) reporter cell line (Invivogen, raw-sp) was used to evaluate the valency effect of TLR9 agonist conjugated to PEG-PLA NPs. The cells were cultured at 37° C. with 5% CO2 in DMEM supplemented with L-glutamine (2 mM), D-glucose (4.5 g/L), 10% HI-FBS, and penicillin (100 U/mL)/streptonmcin (100 μg). Every other passage, zeocin (100 μg/mL) was added to the culture medium. Serial dilutions of soluble CpG-B and CpG-C and of the different CpG-B and CpG-C NPs formulations were added to a 96-well tissue culture treated plate to achieve final concentrations between 30 and 3.1 μg/mL of TLR9 agonist. Non-conjugated PEG-PLA NPs were used as a negative control. […] Manufacturer instructions were followed for SEAP quantification, and absorbance levels detected at 655 nm after 3 h incubation with QUANTI-Blue Solution (Invivogen). […]
In these assays, Raw-Blue cells were incubated for 21 h with either the free form, or the NPs tethered form (10%, 20%, 30%, 50%) of CpG-C at a range of CpG concentrations (3.1-29 μg/mL) in order to generate concentration dependent activation curves (FIG. 38B). […] To ensure a correct and consistent dosing of CpG NPs throughout different experiments, we constructed a standard curve for both classes of CpG-NPs (FIGS. 40A, 40B) by measuring the absorbance of different concentration of CpG at 280 nm. […]
For orientation: A reporter such as luciferase makes a cellular process visible.

Data set [1] can be described thus: Cargo and polymer diffusivity (FRAP, Stokes-Einstein, MSDM). Format: physicochemical. The following applies: for Diffusivity in 1:5 gel / Diffusivity in 2:10 gel: FRAP; for Diffusivity in PBS: calculated with Stokes-Einstein from RH. From the text: To characterize the dynamics of vaccine exposure expected from the vaccine-loaded gels, we assessed the diffusivities of both vaccine cargo in each of the two gel formulations of interest using fluorescence recovery after photobleaching (FRAP) experiments (FIG. 9F. FIG. 16). The PNP gels are unique compared to traditional covalently cross-linked gels as their bonds are dynamic and continuously rearrange^28. This feature results in self-diffusion of the polymer network over time within the intact hydrogel^40,41. OVA's hydrodynamic radius (RH) in PBS is reported in the literature to be 3.2 nm^42, corresponding to a diffusivity value, D, of 76.6 μm^2/s. Using multi-angle light scattering (MALS) we measured Poly(I:C)'s hydrodynamic radius to be much larger, with an RH of 34.2 nm, corresponding to a D value of 7.2 μm^2/s. This difference in hydrodynamic size results in OVA having more than a 10-fold greater diffusivity than Poly(I:C) in PBS (FIG. 9G) and a 100-fold difference in a typical covalently cross-linked hydrogel (FIG. 17). […] The measured diffusivities for all experiments can be found in Table 6.
FRAP Analysis: Alexa Fluor 647 conjugated OVA (Thermo Fisher Scientific), rhodamine conjugated Poly(I:C) (Invivogen), and rhodamine conjugated HPMC-C12 were used to visualize the diffusion of the cargo and gel. Samples were photobleached with a 50 μm diameter for the region of interest (ROI). Different tests (n=5) were made for 3 different samples from the same batch at different locations of the sample. A spot was bleached with a pixel dwell time of 177.32 μs. 500 post-bleach frames were recorded at 1 frame/s to form the recovery exponential curve. The diffusion coefficient was calculated as^52:
Where the constant γD=τ1/2τD, with τ1/2 being the half-time of the recovery. τD the characteristic diffusion time, both yielded by the ZEN software, and ω the radius of the bleached ROI (25 μm).
The diffusivity of cargo in PBS was calculated using the Stokes-Einstein Law Equation for diffusion^53 where kB is Boltzmann's constant, T is temperature in Kelvin, η is solvent viscosity, and R is solute hydrodynamic radius
The diffusivity of cargo in a model covalent PEG gel was calculated using the Multiscale Diffusion Model (MSDM) assuming 25° C., 5% volume fraction, and 35 nm mesh size^54.
FRAP Analysis: Alexa Fluor 647 conjugated OVA (Thermo Fisher Scientific), rhodamine conjugated Poly(I:C) (Invivogen), and rhodamine conjugated HPMC-C12 were used to visualize the diffusion of the cargo and gel. The samples were placed in a sterile 0.18 mm thick glass bottom dish (Ibidi). An Inverted Zeiss LSM 780 Laser Scanning Confocal Microscope (Germany) using a Plan-Apochromat 20×/0.8 M27 objective lens was used for FRAP measurements. To excite the fluorescent Alexa Fluor 647, a 5 mW 633 nm He—Ne laser was employed at 2%, and the emitted fluorescence was detected by Alexa Fluor 647 specific band pass filter (638-756 nm). To excite the fluorescent rhodamine, a 20 mW 561 nm diode pumped solid state laser was used at 2%, and the emitted fluorescence was detected by rhodamine specific band pass filter (415-638 nm). We used pixel dwell time 2.55 μs which took 390.98 ms to finish every scan. Samples were photobleached with a 405 nm diode laser, plus the 633 nm laser in the case of the Alexa Fluor, and a 514 nm argon laser and the 561 nm laser in the case of the rhodamine. All lasers were set al 100% intensity for the bleaching, with a 20-40 μm diameter for the region of interest (ROI). To avoid any extra noise, the high voltage was limited to be 700 V. Different tests (n=5) were made for 3 different samples from the same batch at different locations of the sample. For each test, 10 control pre-bleach images were captured at 1 frame/s. A spot was bleached with a pixel dwell time of 177.32 μs. 500 post-bleach frames were recorded at 1 frame/s to form the recovery exponential curve. The pixel size was set to be 1.66 μm. The diffusion coefficient was calculated as^62: […]

The conditions of data set [2]: reported in the literature; cited from earlier work.

Consider CpG-B 1826 [soluble CpG-B], for which the “anti-spike total IgG endpoint titers” value in the data set on SARS-CoV-2 spike protein was “stronger response than the CpG-B NP”.
Take “CpG-C 2395 (DNA TCGTCGTTTTCGGCGCGCGCCG; chemistry not given here) [free CpG-C]”: the “log EC50” value with TLR9 was 1.15 log10(μg/mL).
For Poly(I:C), in data set [1], the “Diffusivity in 1:5 gel” value stood at 1.7 ± 0.3 μm^2/s, the “Diffusivity in 2:10 gel” value was 2.4 ± 0.1 μm^2/s and the “Diffusivity in PBS” value was 7.2 μm^2/s. Besides, the “hydrodynamic radius (RH)” value in data set [1] (multi-angle light scattering (MALS)) was determined as 34.2 nm.

B1: ovalbumin (protein, UniProt P01012 2-386, looked up)
Ovalbumin: GSIGAASMEFCFDVFKELKVHHANENIFYCPIAIMSALAMVYLGAKDSTRTQINKVVRFDKLPGFGDSIEAQCGTSVNVHSSLRDILNQITKPNDVYSFSLASRLYAEERYPILPEYLQCVKELYRGGLEPINFQTAADQARELINSWVESQTNGIIRNVLQPSSVDSQTAMVLVNAIVFKGLWEKAFKDEDTQAMPFRVTEQESKPVQMMYQIGLFRVASMASEKMKILELPFASGTMSMLVLLPDEVSGLEQLESIINFEKLTEWTSSNVMEERKIKVYLPRMKMEEKYNLTSVLMAMGITDVFSSSANLSGISSAESLKISQAVHAAHAEINEAGREVVGSAEAGVDAASVSEEFRADHPFLFCIKHIATNAVLFFGRCVSP
notes: model antigen protein, MW=43 kDa
With B1, in data set [1], the “Diffusivity in 1:5 gel” value is 5.76 μm^2/s and 6 ± 1 μm^2/s; the “Diffusivity in 2:10 gel” value is 3.2 μm^2/s and 3.2 ± 0.6 μm^2/s; the “Diffusivity in PBS” value is 76.6 μm^2/s. The “hydrodynamic radius (RH) in PBS” value in data set [2] is recorded as 3.2 nm.
